Consider two molecules from patent US10231939B2, “Hydroxytyrosol and oleuropein compositions for induction of DNA damage, cell death and LSD1 inhibition” (priority 2012, dated 2019).

SMILES strings stand for the structures. pEC50: −log10 of the molar value.

Assay type in all cases: cell-based, human
One data set relates to PBMC. The data set can be described thus: Cell proliferation (Cell Titer-Blue Assay). As to conditions: for cell proliferation of PBMC: 120 hours incubation; for pEC50: Homo sapiens, 24 hr. Here is the method:
Human peripheral blood mononuclear cells (PBMCs) were fractionated using the Ficoll Plaque fractionation method from whole blood obtained from the Australian Red Cross Blood Bank (ARCB) under ethic approval (#304/12). Cells were harvested fresh on the day of the experiments and maintained in complete-RPMI-1640 medium supplemented with 10% FBS, 2 mM L-glutamine and 20 μg/mL gentamicin at 37° C., 5% (v/v) CO2. Cell proliferation was determined using the Cell Titer-Blue Assay kit (Promega, Madison, Wis., USA). Cells were seeded at 10,000 cells per well in black flat bottom 96-well plates (Nalge Nunc, Penfield, N.Y., USA) and treated with serial doses of hydroxytyrosol (0-3200 μM) and oleuropein (0-12800 μM) for 24, 48 and 120 hours at 37° C., 5% (v/v) CO2. Following incubation with the test samples, Cell-Titer Blue reagent (20 μl per 100 μL) was added to each well and mixed gently for 5 sec prior to 4 hr incubation at 37° C. in a humidified atmosphere of 5% CO2. Fluorescence intensity (λex=550 nm and λem=615 nm) was determined using a Perkin Elmer Victor3 multilabel microplate counter (PerkinElmer, Waltham, Mass., USA). Data were expressed as % relative cell viability compared to untreated cells after correction of subtracting the media control fluorescence reading.
In general terms: The colour change of resazurin is a common sign of viable cells or microbes.

The subject of a further data set is A431 cells. Briefly: Cell proliferation (Cell Titer-Blue Assay). As to conditions: for pEC50: Homo sapiens, A-431. Here is the method: (§1) Human epidermal squamous carcinoma A431 cells (ATCC No. CRL-1555), human breast adenocarcinoma MCF7 cells (ATCC No. HTB-22) and brain glioblastoma T98G cells (ATCC No. CRL-1690) obtained from the ATCC were grown as monolayers in a Modified Eagle's Medium (a-MEM) supplemented with 2 mmol/L HEPES (pH 7.4; GIBCO-Invitrogen), 10% (v/v) FBS, 2 mmol/L L-glutamine (GIBCO-Invitrogen), and 80 units gentamicin (GIBCO-Invitrogen). Human epithelial lung adenocarcinoma A549 cells (ATCC No. CCL-185), human liver hepatocellular carcinoma and human colorectal carcinoma HT-29 cells (ATCC No. HTB-38) were obtained from the American Type Culture Collection and grown as monolayers in DMEM (Gibco, Invitrogen) supplemented with 10% (v/v) FBS (In Vitro Technologies), antibody/antimycotic containing 100 U/mL Penicillin, 100 μg/mL Streptomycin, 0.25 μg/mL Amphotericin B (Invitrogen, Carlsbad). All adherent cells were maintained in the exponential growth phase in T75 cm^2 vented culture flasks and passaged by 0.05% (v/v) trypsin-EDTA (GIBCO, Invitrogen) before seeding; at 37° C., 5% (v/v) CO2. Cell proliferation was determined using the Cell Titer-Blue Assay kit (Promega, Madison, Wis., USA). Cells were seeded at 10,000 cells per well in black flat bottom 96-well plates (Nalge Nunc, Penfield, N.Y., USA) and treated with serial doses of hydroxytyrosol (0-3200 μM) and oleuropein (0-12800 μM) for 24, 48 and 120 hours at 37° C., 5% (v/v) CO2. Following incubation with the test samples, Cell-Titer Blue reagent (20 μl per 100 μL) was added to each well and mixed gently for 5 sec prior to 4 hr incubation at 37° C. in a humidified atmosphere of 5% CO2. Fluorescence intensity (λex=550 nm and λem=615 nm) was determined using a Perkin Elmer Victor3 multilabel microplate counter (PerkinElmer, Waltham, Mass., USA). Data were expressed as % relative cell viability compared to untreated cells after correction of subtracting the media control fluorescence reading.

The test system of the next data set is A549 cells. The data set can be described thus: Cell proliferation (Cell Titer-Blue Assay). Particulars: for pEC50: Homo sapiens. Here is the method:
as §1

For a further data set, the system named is HT-29 cells. The data set can be described thus: Cell proliferation (Cell Titer-Blue Assay). As to conditions: for pEC50: Homo sapiens. Here is the method: as §1
Another data set concerns MCF7 cells. The data set can be described thus: Cell proliferation (Cell Titer-Blue Assay). As to conditions: for pEC50: Homo sapiens. The protocol:
as §1

The next data set has as its system T98G cells. The data set can be described thus: Cell proliferation (Cell Titer-Blue Assay). Particulars: for pEC50: Homo sapiens. The protocol: as §1
For data set [1], the system named is K562 cells. The data set can be described thus: Cell viability (Cell-Titer Blue), K562. Here is the method: Cells were seeded at densities of 7,500 cells/in black flat bottom 96-well plates (Nalge Nunc, Penfield, N.Y., USA) and treated with a dose response of hydroxytyrosol (0-200 μM), oleuropein (0-800 μM), tyrosol (0-1000 μM) and homovanilic acid (0-1000 μM) for 24 hours at 37° C., 5% (v/v) CO2. Cell viability was determined after 24 hour exposure to hydroxytyrosol and measured using the Cell-Titer Blue® Assay kit (Promega, Madison, Wis., USA) according to the manufacturer's instructions. Cell-Titer Blue reagent was added to each well and incubated for 4 hours at 37° C., 5% CO2, before reading fluorescence intensity (550 nm excitation; 615 nm emission) using the Perkin Elmer Victor3 (Perkin Elmer, MA, USA) multi-label plate reader. Alternatively Cells were seeded at densities of 7,500 cells/in black flat bottom 96-well plates (Nalge Nunc, Penfield, N.Y., USA) and treated with 100 μM hydroxytyrosol for 24 hours at 37° C., 5% (v/v) CO2. […] Fluorescence intensity (λex=550 nm and λem=615 nm) was determined using a Perkin Elmer Victor3 multilabel microplate counter (PerkinElmer, Waltham, Mass., USA). Data were expressed as % relative cell viability compared to untreated cells after correction of subtracting the media control fluorescence reading.

Data set [2] relates to K562 cells. The data set can be described thus: Western blotting of histone methylation, K562. Particulars: K562, 100 μM, 24 hours. (Immunoblotting shows a protein as a band on a membrane.)

One may read the pEC50 as the EC50 on a negative log10 scale, so that one unit is a factor of ten. A high value points to a small EC50. As to `OCCc1ccc(O)c(O)c1` [HT, 4-(2-hydroxyethyl)-1,2-benzenediol], the “cell proliferation of PBMC” value in the data set on PBMC was “increases the proliferation”; in the data set on PBMC (listed as hydroxytyrosol) it was “attenuated”. Moreover, the pEC50 is 3.07 in the data set on PBMC; 3.06 with A431 cells (A431, 24 hr); 3.04 with A431 cells (A431, 48 hr); 3.32 in the data set on A431 cells (A431, 120 hr); 3.38 in the data set on A549 cells (A549, 24 hr); 3.66 in the data set on A549 cells (A549, 48 hr). Besides, the pEC50 was 3.80 in the data set with A549 cells (A549, 120 hr); 3.10 with HT-29 cells (HT-29, 24 hr); 3.64 in the data set on HT-29 cells (HT-29, 48 hr); 3.51 with HT-29 cells (HT-29, 120 hr); 3.24 with MCF7 cells (MCF7, 24 hr); 3.05 with MCF7 cells (MCF7, 48 hr). For the same molecule, the pEC50 in the data set on MCF7 cells (MCF7, 120 hr) was 3.28; in the data set with T98G cells (24 hr), 2.87; in the data set with T98G cells (48 hr), 2.76; in the data set on T98G cells (120 hr), 3.15. In addition, the “EC10 (concentration required to reduce the cell viability of the population to 10%)” value in the data set with A431 cells (A431, 120 hr) amounted to 1000 µM; in the data set with A549 cells (A549, 120 hr) it was 320 µM; in the data set on HT-29 cells (HT-29, 120 hr), 380 µM; in the data set on MCF7 cells (MCF7, 120 hr), 750 µM; in the data set with T98G cells (120 hr) it was 1120 µM. The “cell viability of K562 cells” value in the data set on K562 cells [1] (20 or 100 μM, 24 hours) is reported as “significantly reduced in a dose dependent manner”. Moreover, the “effect on the cytotoxicity of doxorubicin” value in the data set with K562 cells [1] (K562, hydroxytyrosol pre-treatment 24 hours, then doxorubicin) was “enhances the cytotoxicity of doxorubicin”. The “histone H3 lysine 9 (H3K9) di-methylation” value in the data set on K562 cells [2] is “increased”.
For the molecule `C/C=C1/[C@H](O[C@@H]2O[C@H](CO)[C@@H](O)[C@H](O)[C@H]2O)OC=C(C(=O)OC)[C@H]1CC(=O)OCCc1ccc(O)c(O)c1` [OL, oleuropein], the pEC50 with PBMC was 2.57; in the data set on A431 cells (A431, 24 hr) it was 2.76; with A431 cells (A431, 48 hr) it was 2.36; in the data set with A431 cells (A431, 120 hr), 2.54; in the data set on A549 cells (A549, 24 hr), 2.97; with A549 cells (A549, 48 hr), 2.96. The pEC50 in the data set with A549 cells (A549, 120 hr) was 2.91; in the data set on HT-29 cells (HT-29, 24 hr), 2.80; in the data set with HT-29 cells (HT-29, 48 hr), 2.60; with HT-29 cells (HT-29, 120 hr), 2.73; in the data set with MCF7 cells (MCF7, 24 hr) it was 2.32; with MCF7 cells (MCF7, 48 hr) it was 2.52. Besides, the pEC50 in the data set with MCF7 cells (MCF7, 120 hr) is 2.39; in the data set with T98G cells (24 hr), 2.56; in the data set with T98G cells (48 hr), 2.21; in the data set with T98G cells (120 hr), 2.26. The “EC10 (concentration required to reduce the cell viability of the population to 10%)” value in the data set on A431 cells (A431, 120 hr) was 4450 µM; in the data set on A549 cells (A549, 120 hr) it was 1540 µM; in the data set on HT-29 cells (HT-29, 120 hr), 2950 µM; in the data set with MCF7 cells (MCF7, 120 hr), 4700 µM; in the data set with T98G cells (120 hr) it was 6220 µM.
